“Also recorded” adds a separate entry of the source.
Key:
[1] = test system: rat brains following kainate-induced seizures; test: Neuronal degeneration in rat brains following kainate-induced seizures (H&E, TUNEL); format: in vivo, Sprague-Dawley rats; settings: KA 10.5 mg/Kg s.c., TMP 50 mg/Kg s.c. 1 hr after onset of seizures
Method: One month-old Sprague-Dawley rats were subcutaneously (s.c.) administrated kainite (KA) (10.5 mg/Kg). 1 hr after the onset of seizures animals were given TMP (50 mg/Kg, s.c.) or equal volume of vehicle. All the animals were sacrificed 24 hr after TMP or vehicle injection under deep anesthesia. […] Scale bar=100 μm in b, d, e, g, i, j, 1, n and o; and 400 μm in a, c, f, h, k and m.

[2] = test system: Primary neurons treated with Aβ1-42; test: Neuronal survival in primary neuronal cultures treated with pre-aggregated Aβ1-42; format: cell-based, C57BL mice; settings: 50 μM TMP with pre-aggregated Aβ1-42
Method: Primary neurons prepared from postnatal 1 day C57BL mice were treated with pre-aggregated Aβ1-42 combined with either 50 μM TMP or equal volume of vehicle at day 5 after plating. […] Nuclei were counterstained as blue by Hoechst 33342 (Hoec). Scale bar=100 μm in b & e; 80 μm a, d, f; 60 μm in c; and 40 μm in B.

3×Tg-AD mouse brain = test: Brain pathology in 3×Tg-AD mice fed TMP-containing diet; format: in vivo
Method: (A) 16-month old triple-transgenic mice (3×Tg-AD, females) were fed with TMP containing (300 mg TMP/Kg diet) or nutrients-matched control diet made by BioSery (Frenchtown, N.J.) for 70 days. […] Animals were euthanized and perfused with PBS following behavioral analyses. Half the brain was fixed with 4% paraformaldehyde (PFA) in 1×PBS and sectioned using a microtome at 40 μm, while the other half-brain was dissected and rapidly frozen for biochemical analyses. […] The boxed areas in (a) is shown in (b) at higher magnification. […] The boxed areas in a & c are shown in b & d at higher magnification. Nuclei were stained as red by propidium iodide (PI). Scale bar=400 μm in A.a&c; 100 μm in B.a&c; 80 μm A.d&e, B.d; and 60 μm in A.b, B.b. (C) Glutathione (GSH) contents in the mouse brains were measured in the cortical lysates prepared from the 3×Tg AD mouse brains following TMP treatments or control using a Biovison Glutathione colorimetric detection kit. Lysates from age-matched untreated wild type mouse brains were used as controls (WT).
(§1) In these mice, the earliest pathological hallmark is the accumulation of intraneuronal Aβ in the hippocampus, cortex and amygdala in 4 month old 3×Tg-AD homozygous mice. […] Between 4-6 months of age 3×Tg-AD homozygous mice develop diffuse amyloid plaques in the neocortex. At 6 months the retention deficits are associated with significant impairments in spatial learning of the Morris Water Maze task. 16 Month old triple-transgenic female mice (3×Tg-AD) were fed TMP-containing (300 mg TMP/kg diet) or nutrients-matched control diet made by Biosery for 70 days. Brain and retina pathology was evaluated by immunohistochemistry with specific antibodies and learning and memory performance were scored using the Novel Object Recognition Task and using Morris Water Maze trials.

Thy1.2 promoter = test: Luciferase-mediated Thy1.2 activity reporter in N2A cells; format: cell-based, mouse; settings: TMP 50 μM, 24 hr
3×Tg-AD mice = test: Learning and memory in 3×Tg AD mice (novel object recognition, Morris water maze); format: in vivo; settings: 16-month old 3×Tg-AD females
Method: Both 16-month old 3×Tg-AD and background-matched wild type (WT) mice (females) were fed with TMPcontaining or nutrients matched control for 60 days as described in FIG. 3. (A) On day 61, all the mice were tested for object recognition as previously described. Briefly, mice (n=14 for each group) were habituated to a 60×30 cm container for 5 min. Two identical objects were placed in the bottom of the cage as mirror images of each other. The animal was trained for 5 min followed by a 5 min retention interval in the home cage. Then one of the objects in the test container was replaced with a novel object. During the 3-min probe trial, the mouse was placed in the cage and time spent investigating both objects was measured. A recognition index (R1) score is depicted as: (TimeN (in seconds for novel object)/TimeTotal (in seconds for both old and novel objects))×100. (B-D) Starting on day 62, all the mice were trained for 9 days on the Morris water maze (MWM) exactly as described for the behavior testing. […] (C) MWMprobe trial for number of platform location crosses, and (D) MWM probe trial for time spent in the target quadrant. As shown by the p values, (*) indicates significant improvement by TMP treatments with respect to the corresponding controls.
FIG. 21A-D: Improvement of learning and memory in aged 3×Tg AD mice by TMP treatment. Novel object recognition task was performed. A recognition index (R1) score is depicted as: [TimeN (in seconds for novel object)/TimeTotal (in seconds for both old and novel objects)]×100. B-D Starting on day 62, all the mice were trained for 9 days on the Morris water maze (MWM) for the behavior testing. […] (C) MWM probe trial for number of platform location crosses, and (D) MWM probe trial for time spent in the target quadrant. As shown by the p values, (*) indicates significant improvement by the compound treatments with respect to the corresponding controls.
as §1, with “TMP improves pathology in brains of 3×Tg-AD mice and results in increased memory and learning (See FIGS. 3, 4, and 10). In” for “In”, “16 Month old triple-transgenic female mice (3×Tg-AD) were fed TMP-containing (300 mg TMP/kg diet) or nutrients-matched control diet made by Biosery for 70 days.” left out
The ability of TMP-N to improve learning and memory in 3×Tg AD mice was assessed using novel object recognition task. […]

cells under stress = test: Production of peroxides in cells under stress; format: cell-based
retinas of 3×Tg-AD mice = test: Retinal pathology in 3×Tg-AD mice; format: in vivo
5×FAD mouse brains = test: Abeta immunoreactivity (6E10) in 5×FAD mouse brains; format: in vivo, mice; settings: chow containing 300 mg/Kg from postnatal day 61 for 4 months
From the text: Animal tissues were perfused with 1×PBS followed by overnight fixation in 4% paraformaldehyde in cold room. Vibrotome sections (˜50 μm thick) were immunostained with 6E10 antibody, which recognizes all forms of Abeta, and visualized by fluorescence microscopy.

SMILES: Cc1nc(C)c(C)nc1C [TMP, tetramethylpyrazine]
- Quantification of TUNEL-positive cells in the hippocampal regions ([1]; 24 hr): significant less number of damaged neurons
- neuronal damage/degeneration by H&E and TUNEL staining, hippocampal and piriform cortex regions ([1]; sacrificed 24 hr after): attenuates neuronal degeneration; also recorded: only exhibited a few sporadic pink (1) and TUNEL-positive cells
- mitochondrial depolarization (TMRM staining) [2]: very few cells
- neuronal survival / morphological changes showing neuronal degeneration (DIC microscopy) ([2]; 24 hr): promotes neuronal survival; also recorded: not in these cells in the presence of TMP
- GFAP staining (astrocyte activation, astrogliosis) in brain (3×Tg-AD mouse brain; 300 mg TMP/Kg diet, 70 days): dramatically reduced Aβ accumulation and senile plaques as well as astrogliosis; also recorded: reduced intensity of GFAP staining
- Glutathione (GSH) contents in cortical lysates (3×Tg-AD mouse brain; 300 mg TMP/Kg diet, 70 days, colorimetric kit): significantly increase GSH contents
- adverse effects on the health of animals (3×Tg-AD mouse brain; 300 mg TMP/Kg diet, about 40~50 mg/Kg daily per os, 70 days): no adverse effects on the health of animals have been observed
- BACE-related APP cleavage and Aβ accumulation in brains (3×Tg-AD mouse brain; 3×Tg AD mouse brains): reduces BACE-related APP cleavage and Aβ accumulation
- Aβ staining / Aβ accumulation and senile plaques in brain (immunohistochemistry) (3×Tg-AD mouse brain; 16-month old females, 300 mg TMP/Kg diet, about 40~50 mg/Kg daily per os, 70 days, 50 mg/kg): dramatically reduced Aβ accumulation and senile plaques; also recorded: markedly reduced levels of Aβ staining
- Thy1.2 activity (luciferase-positive cells relative to all transfected cells) (Thy1.2 promoter): no influence of TMP on Thy1.2 activity
- Morris water maze (MWM) acquisition performance (3×Tg-AD mice; TMP diet 60 days, trained 9 days from day 62): significantly improved the performance of 3×Tg-AD mice
- learning and memory (object recognition, MWM probe trials) (3×Tg-AD mice; TMP-containing diet): significant improvements in learning and memory; also recorded: improves learning and memory
- production of peroxides (cells under stress): inhibits the production of peroxides
- Astrocytic activation in the retinas (retinas of 3×Tg-AD mice): inhibited
- Aβ plaques in the retinas (retinas of 3×Tg-AD mice): significantly reduces the number if Aβ plaques
- fibril and oligomer conformations of Aβ (retinas of 3×Tg-AD mice): reduces both fibril and oligomer conformations of Aβ
- retinal pathologies associated with disease (retinas of 3×Tg-AD mice): beneficial effects
- Abeta immunoreactivity / deposits in brain (6E10) (5×FAD mouse brains): reduction Abeta immunoreactivity

From patent US20110200531A1, “TREATMENT AND DIAGNOSIS OF CENTRAL NERVOUS SYSTEM DISORDERS” (THE REGENTS OF THE UNIVERSITY OF CALIFORNIA, priority 2009, published 2011)
